Reference: US8088897B2, “Assay method for group transfer reactions” (BellBrook Labs, Inc., priority 2003, dated 2012)
Like-named read-outs stand apart in the source and are kept apart here.

How the values were obtained:
SULT1E1 [1] = target: T1, SULT1E1 (Homo sapiens, UniProt P49888); conditions: acceptor substrate; read-out: Km, published values for purified recombinant SULT1E1; cited from earlier work
T1 construct: made in house; host or cells: E. coli
T1 sequence (P49888 1-294): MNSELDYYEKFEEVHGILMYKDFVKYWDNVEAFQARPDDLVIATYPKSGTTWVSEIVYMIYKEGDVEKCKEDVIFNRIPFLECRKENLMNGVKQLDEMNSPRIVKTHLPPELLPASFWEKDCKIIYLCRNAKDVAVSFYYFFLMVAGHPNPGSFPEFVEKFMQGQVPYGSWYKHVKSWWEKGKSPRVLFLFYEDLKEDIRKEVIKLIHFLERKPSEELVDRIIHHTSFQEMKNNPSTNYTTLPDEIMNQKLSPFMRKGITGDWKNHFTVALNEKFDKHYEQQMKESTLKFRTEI

Ab 3642 = test: FP competition curves with Ab 3642 and PAP tracer; assay type: binding, rabbit; conditions: read-out: IC50 for displacement of tracer
Procedure: N6-PAP-6F8 tracer is represented by the open symbols: ◯ (PAP), □ (PAPS). C8-PAP-F14 tracer is represented with the closed symbols: ● (PAP), ▪ (PAPS). PAP or PAPS was serially diluted two-fold in black mutiwell plates containing 50 mM phosphate buffer (pH 7.4), 150 mM NaCl, 0.1 mg/mL BGG, 1 nM C8-PAP-F14, and 1.5 uL purified Ab 3642 in a total volume of 12 μl or 1 nM N6-PAP-F8 and 0.5 uL 3642 Ab in a 20 uL volume. Polarization values were read after one hour at room temperature.
(§1) Competitors were serially diluted two-fold in a black 384-well microtiter plate containing 50 mM phosphate buffer (pH 7.4), 150 mM NaCl, 0.1 mg/mL BGG, 1 nM Tracer C8-PAP-F14, and either 1.5 uL Ab 3642 (A) or 3 uL Ab 1781 (B) in a total volume of 12 uL. After one hour incubation at room temperature, the polarization values were read on a Tecan Ultra (Ex485/Em535). The mean and standard deviation of duplicates for all data sets are shown.

Ab 1781 = test: FP competition curves with Ab 1781 and PAP tracer; assay type: binding, rabbit; conditions: 1 nM C8-PAP-F14 tracer, 3 uL Ab 1781; read-out: IC50 for displacement of tracer
Procedure: as §1

SULT1E1 [2] = target: T1, SULT1E1; test: Inhibition of SULT1E1 measured with the FPIA-based assay; assay type: biochemical
Procedure: Specifically, FIG. 25 is a graph showing inhibition of SULT1E1 by 2,6 Dichloro-4-nitrophenol (DCNP) measured with the FPIA-based assay. DCNP was serially diluted two-fold into wells in 46 uL of phosphate assay buffer (30 mM KPO4 (pH 6.5), 0.5 mg/mL BGG, 15 mM DTT, 1.6 mM MgCl2, 4 μM PAPS), followed by 50 μl of a 2× Antibody/tracer mix (5 uL 3642 Ab/2 nM Tracer C8-PAP-F14), and 200 ng of SULTIE in a total volume of 100 μl. The plate was incubated at room temp for 30 min, and read on the Tecan Ultra. AmP values were calculated by subtracting the SULT1E reactions from the no SULTIE controls. All values represent the mean of replicates.

SULT1E1 [3] = target: T1, SULT1E1; test: 35S-PAPS radioassay of SULT1E1 inhibition; assay type: biochemical; conditions: 35S-radioassay
GDP monoclonal antibody = test: FP competition binding of GDP vs GTP to monoclonal antibody-tracer complex; set-up: species or system mouse; conditions: 2 nM far red Tracer, 0.85 μg/mL antibody, one hour
Procedure: Fluorescence intensity and polarization measurements utilizing the ADP-Alexa Fluor® or GDP-Alexa Fluor® tracers were performed on a Tecan Ultra or Safire^2™ plate reader (Durham, N.C.) using appropriate filter sets. For the ADP-Alexa Fluor®633 tracer, the filters for the Safire2 were 635 nm excitiation (LED) and 670 emission (20 nm bandwidth). The free tracer reference was set to 20 mP, and the buffer (with or without antibody) was used as the buffer blank for both the sample and free tracer reference wells. Data from binding and competition curves were fit to a variable slope sigmoidal dose-response curve and the IC50 were calculated using GraphPad Prism (GraphPad Software, San Diego, Calif.).
To identify suitable antibody/tracer pairs for FP assay development, equilibrium binding assays were performed by titrating ADP/GDP antibodies with a panel of ADP/GDP tracers (1-2 nM). The first well consisted of 1 mg/mL antibody in 30 μL of the final equilibrium buffer (i.e. 50 mM HEPES (pH 7.5), 0.01% Brij-35, 1 mM EGTA, 2 mM MgCl2, 0.5% DMSO, 20 mM EDTA, and 2 nM tracer). A two-fold serial dilution of the antibody was then performed in 15 μL of the same buffer. […]
In one example, the monoclonal antibody binding selectivity between GDP vs. GTP was analyzed and the results are set forth in FIG. 27. […]

[4] = tested on: Protein G-purified Anti-ADP antibody; test: FP competition with 5-FAM-N6-ADP tracer and anti-ADP polyclonal antibody; assay type: binding, rabbit; conditions: 1 nM 5-FAM-N6-ADP tracer; for IC50: 19 hours room temperature, read-out: half maximal point in the competition curve (IC50); for amount required to displace the tracer: compared with ADP and ATP
Text: To develop an anti-ADP antibody, 6-aminobutyl-ADP (Biolog Life Science Inst., Bremen, Germany) was conjugated to keyhole limpet hemocyanin with a suitable reagent such as glutaraldehyde and used to immunize rabbits. Other carrier proteins such as BSA or ovalbumin and other conjugation chemistries may be used. Attachment to carrier protein via the adenine ring exposes the ribosyl-phosphate moiety, where selectivity is required, and minimizes exposure of the adenine ring. The resulting antisera was tested for ADP binding affinity and selectivity in competitive fluorescence polarization binding assays. Synthesis of the fluor-ADP conjugates used as tracers in these binding assays is described below. […] The reaction mixtures consisted of 50 mM KPO4, 150 mM NaCl, 0.1 mg/mL BGG, 1 nM tracer, 3% Protein G-purified Anti-ADP antibody, and competitor. The reaction mixtures were incubated for 19 hours at room temperature. Competitors included ADP (∘), ATP (●), Adenosine (▪), and AMP (▴).

UGT 2B7 Baculosomes = test: Mock UGT reactions: signal stabilization and reaction quenching; assay type: biochemical; conditions: EGTA at 80 mM, sodium vanadate at 30 mM; for effect on UDP breakdown: 5 μM UDP added, no acceptor substrate
Procedure: UGT enzymes are available only as crude membrane preparations that contain many other enzymes besides the desired UGT. Some of these contaminating enzymes can catalyze hydrolysis of the UDP molecule to UMP or Uridine, resulting in an unstable signal for the assay. To prevent this, agents such as sodium vanadate and EGTA are added to stabilize the assay signal by preventing breakdown of the UDP formed during the UGT reaction. […] The use of such a quenching reagent provides greater flexibility in experimental protocols because HTS assay plates may be read at any time after the quench reagent is added.

SULT1E1 [5] = target: T1, SULT1E1; test: SULT1E1 enzymatic properties (Km, acceptor substrate specificity); assay type: biochemical; conditions: for acceptor substrate specificity: purified SULT1E1
Text: In order to establish a sulfotransferase HTS assay method, SULT1E1, a SULT isoform, was first subcloned into an E. coli expression vector with a C-terminal 6× histidine tag and the expressed protein was purified by affinity chromatography and characterized with respect to its physical and enzymatic properties.

[6] = target: polyclonal antibody raised against a mixture of UTP and UDP conjugated to KLH (UGT-1); test: Competitive FP displacement of UTP tracers from anti-UDP/UTP antibody by uridine nucleotides; assay type: binding, rabbit
Procedure: To detect UGT catalytic activity a series of experiments were performed using the antibodies and tracers described above. […] The antibody and 2 nM of a commercially available Alexa® 488-5-aminoalkynyl-UTP molecule (Molecular Probes) were added to wells of a black multiwell plate (Thermo Labsystems Pt# 7605) containing the indicated amounts of uridine nucleotides in 50 mM KPO4pH 7.5, 150 mM NaCl, 0.1 mg/ml BGG . Fluorescence polarization was read in a Tecan Ultra plate reader after several hours of equilibration at room temperature using a Ex485/Em535 filter set.
Applicants further note that the ability of the antibody to selectively recognize low micromolar concentrations of UDP in the presence of UDPGA concentrations typically used for UGT assays —50-100μM —is important for achieving a low signal to background. Varying the structure of the immunogen, as mentioned above, is one way to change the relative binding properties of antibodies for UDP and UDPGA. Another way that is not as immediately obvious is to vary the tracer structure. The method depends on the relative ability of UDP and UDPGA to competitively displace the tracer from antibody, and it is reasonable to assume that not all tracers will show the same relative response to the two nucleotides. An example of such tracer effects is summarized in FIGS. 10 A and B. In this example, two different tracers are compared. The tracers are conjugates of 5-aminoallyl UTP to two different amine reactive Alexa Fluors®, one with an excitation peak of 546 and the other with an excitation of 568. Both of these tracers are displaced from antibody (anti-UDP rabbit polyclonal Ab or UGT-1) in a similar manner by UDP. […] Thus, the signal to background of the UGT assay with a given antibody can be enhanced by identifying tracers that are displaced by UDP more effectively than UDPGA.

[7] = 1 nM C8-PAP-F14 tracer, 1.5 uL Ab 3642
[8] = 2 nM Alexa 488-5-aminoalkynyl-UTP tracer, UGT-1 antibody, read-out: half maximal values (IC50) for competing off the tracer
[9] = Alexa 546 5-aminoallyl UTP tracer, UGT-1, read-out: IC50 for displacement of tracer from antibody

C[C@]12CC[C@@H]3c4ccc(O)cc4CC[C@H]3[C@@H]1CC[C@@H]2O [estradiol]
Km (SULT1E1 [1]): 0.005 to 0.015 µM

Nc1ncnc2c1ncn2[C@@H]1O[C@H](COP(=O)(O)O)[C@@H](OP(=O)(O)O)[C@H]1O [PAP, 3′-phosphoadenosine 5′-phosphate]
IC50 (Ab 3642; [7]): 0.3 µM
IC50 (Ab 3642; C8-PAP-F14 tracer, Ab 3642): 0.3 µM
IC50 (Ab 1781): 0.3 µM

O=[N+]([O-])c1cc(Cl)c(O)c(Cl)c1 [DCNP, 2,6 Dichloro-4-nitrophenol]
Ki (SULT1E1 [2]): 7800 µM
Ki (SULT1E1 [3]): 11000 µM

Nc1nc2c(ncn2[C@@H]2O[C@H](COP(=O)(O)OP(=O)(O)OP(=O)(O)O)[C@@H](O)[C@H]2O)c(=O)[nH]1 [GTP, guanosine triphosphate]
IC50 (GDP monoclonal antibody): 1.3 µM

Nc1ncnc2c1ncn2[C@@H]1O[C@H](COP(=O)(O)OP(=O)(O)O)[C@@H](O)[C@H]1O [ADP, adenosine diphosphate]
IC50 [4]: 0.3 µM

Sodium vanadate
effect on UGT activity (UGT 2B7 Baculosomes): very effectively inhibits UGT activity
effect on UDP breakdown (UGT 2B7 Baculosomes): prevents UDP breakdown

Nc1ncnc2c1ncn2[C@@H]1O[C@H](COP(=O)(O)OS(=O)(=O)O)[C@@H](OP(=O)(O)O)[C@H]1O [PAPS, 3′-Phosphoadenosine 5′-phosphosulphate]
IC50 (Ab 3642; [7]): 3.8 µM
IC50 (Ab 1781): 1.5 µM
Km (SULT1E1 [5]; donor, read-out: Km for PAPS with SULT1E1): ~0.05 µM

Nc1nc2c(ncn2[C@@H]2O[C@H](COP(=O)(O)OP(=O)(O)O)[C@@H](O)[C@H]2O)c(=O)[nH]1 [GDP, guanosine diphosphate]
IC50 (GDP monoclonal antibody): 0.01 µM

C[C@]12CC[C@H](O)CC1=CC[C@@H]1[C@@H]2CC[C@]2(C)C(=O)CC[C@@H]12 [DHEA]
acceptor substrate specificity (SULT1E1 [5]): very poor substrates

Oc1cccc2ccccc12 [α-naphthol]
acceptor substrate specificity (SULT1E1 [5]): intermediate

Nc1ncnc2c1ncn2[C@@H]1O[C@H](COP(=O)(O)O)[C@@H](O)[C@H]1O [AMP]
amount required to displace the tracer [4]: much higher amounts

O=c1ccn([C@@H]2O[C@H](COP(=O)(O)OP(=O)(O)OP(=O)(O)O)[C@@H](O)[C@H]2O)c(=O)[nH]1 [UTP]
IC50 [6, 8]: 5 µM

O=C(O)[C@H]1O[C@H](OP(=O)(O)OP(=O)(O)OC[C@H]2O[C@@H](n3ccc(=O)[nH]c3=O)[C@H](O)[C@@H]2O)[C@H](O)[C@@H](O)[C@@H]1O [UDPGA, UDP-glucuronic acid]
IC50 ([6]; 2 nM Alexa 488-5-aminoalkynyl-UTP tracer, UGT-1 antibody, read-out: IC50 for competing off the tracer): ~2000 µM
IC50 [6, 9]: 1200 µM

O=C(O)CN(CCOCCOCCN(CC(=O)O)CC(=O)O)CC(=O)O [EGTA]
effect on UGT activity (UGT 2B7 Baculosomes): minimal effects
effect on UDP breakdown (UGT 2B7 Baculosomes): very effectively inhibits UDP breakdown

O=c1ccn([C@@H]2O[C@H](COP(=O)(O)OP(=O)(O)O)[C@@H](O)[C@H]2O)c(=O)[nH]1 [UDP]
IC50 [6, 8]: 15 µM
IC50 [6, 9]: 7 µM
IC50 ([6]; Alexa 568 5-aminoallyl UTP tracer, UGT-1, read-out: IC50 for displacement of tracer from antibody): 9 µM

Nc1ncnc2c1ncn2[C@@H]1O[C@H](CO)[C@@H](O)[C@H]1O [adenosine, Adenosine]
amount required to displace the tracer [4]: much higher amounts

Nc1ncnc2c1ncn2[C@@H]1O[C@H](COP(=O)(O)OP(=O)(O)OP(=O)(O)O)[C@@H](O)[C@H]1O [ATP, adenosine triphosphate]
IC50 [4]: 15 µM

NCCc1ccc(O)c(O)c1 [dopamine]
acceptor substrate specificity (SULT1E1 [5]): very poor substrates
